#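 The compound was tested at five concentrations on cells cultured in 96-well plates, with a 48-hour exposure period. The concentration for 50% growth inhibition is given as GI50. TGI denotes the concentration required for complete inhibition of growth.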
# Experiments:
# Assay in all cases: NCI tumour cell line growth inhibition, 48 h
# MDA-MB-435 = test system: MDA-MB-435
# NCI/ADR-RES ovarian = test system: NCI/ADR-RES ovarian
# K-562 leukemia = test system: K-562 leukemia
# A549 NSCLC = test system: A549 NSCLC
# NCI-H522 lung = test system: NCI-H522 lung
# BT-549 breast = test system: BT-549 breast
# SK-OV-3 ovarian = test system: SK-OV-3 ovarian
# SF-295 CNS = test system: SF-295 CNS
# A498 renal = test system: A498 renal
# CAKI-1 renal = test system: CAKI-1 renal
# OVCAR-3 ovarian = test system: OVCAR-3 ovarian
# MALME-3M melanoma = test system: MALME-3M melanoma
# UACC-62 melanoma = test system: UACC-62 melanoma
# SK-MEL-5 melanoma = test system: SK-MEL-5 melanoma
# SW-620 colon = test system: SW-620 colon
# HS 578T breast = test system: HS 578T breast
# SF-268 CNS = test system: SF-268 CNS
# HL-60(TB) leukemia = test system: HL-60(TB) leukemia
# TK-10 renal = test system: TK-10 renal
# ACHN renal = test system: ACHN renal
# COLO 205 colon = test system: COLO 205 colon
# PC-3 prostate = test system: PC-3 prostate
# SN12C renal = test system: SN12C renal
# OVCAR-8 ovarian = test system: OVCAR-8 ovarian
# HT29 colon = test system: HT29 colon
# MCF7 breast = test system: MCF7 breast
# HOP-62 NSCLC = test system: HOP-62 NSCLC
# SF-539 CNS = test system: SF-539 CNS
# SNB-19 CNS = test system: SNB-19 CNS
# U251 CNS = test system: U251 CNS
# DU-145 prostate = test system: DU-145 prostate
# LOX IMVI melanoma = test system: LOX IMVI melanoma
# MDA-MB-231 breast = test system: MDA-MB-231 breast
# OVCAR-5 ovarian = test system: OVCAR-5 ovarian
# RXF 393 renal = test system: RXF 393 renal
# UACC-257 melanoma = test system: UACC-257 melanoma
# NCI-H23 lung = test system: NCI-H23 lung
# SNB-75 CNS = test system: SNB-75 CNS
# UO-31 renal = test system: UO-31 renal
# CCRF-CEM leukemia = test system: CCRF-CEM leukemia
# SK-MEL-2 melanoma = test system: SK-MEL-2 melanoma
# EKVX NSCLC = test system: EKVX NSCLC
# MOLT-4 leukemia = test system: MOLT-4 leukemia
# SK-MEL-28 melanoma = test system: SK-MEL-28 melanoma
# HCT-15 colon = test system: HCT-15 colon
# T-47D breast = test system: T-47D breast
# M14 melanoma = test system: M14 melanoma
# HCC-2998 colon = test system: HCC-2998 colon
# HCT-116 colon = test system: HCT-116 colon
# RPMI-8226 leukemia = test system: RPMI-8226 leukemia
# SR leukemia = test system: SR leukemia
# HOP-92 NSCLC = test system: HOP-92 NSCLC
# OVCAR-4 ovarian = test system: OVCAR-4 ovarian
# IGROV1 ovarian = test system: IGROV1 ovarian
# 786-0 renal = test system: 786-0 renal
# KM12 colon = test system: KM12 colon
# NCI-H460 lung = test system: NCI-H460 lung
# NCI-H226 lung = test system: NCI-H226 lung
smiles,measurement,setting,value
CC1=C([Te]c2ccc(O)cc2)C(=O)c2ccccc2C1=O,GI50,MDA-MB-435,2.35 µM
same,TGI,MDA-MB-435,5.79 µM
same,GI50,NCI/ADR-RES ovarian,2.42 µM
same,TGI,NCI/ADR-RES ovarian,8.3 µM
same,GI50,K-562 leukemia,1.93 µM
same,TGI,K-562 leukemia,4.36 µM
same,GI50,A549 NSCLC,0.404 µM
same,TGI,A549 NSCLC,4.18 µM
same,GI50,NCI-H522 lung,2.16 µM
same,TGI,NCI-H522 lung,7.31 µM
same,GI50,BT-549 breast,0.448 µM
same,TGI,BT-549 breast,4.22 µM
same,GI50,SK-OV-3 ovarian,1.66 µM
same,TGI,SK-OV-3 ovarian,4.52 µM
same,GI50,SF-295 CNS,0.348 µM
same,TGI,SF-295 CNS,1.98 µM
same,GI50,A498 renal,1.36 µM
same,TGI,A498 renal,3.01 µM
same,GI50,CAKI-1 renal,2.21 µM
same,TGI,CAKI-1 renal,7.41 µM
same,GI50,OVCAR-3 ovarian,1.44 µM
same,TGI,OVCAR-3 ovarian,2.79 µM
same,GI50,MALME-3M melanoma,2.79 µM
same,TGI,MALME-3M melanoma,7.12 µM
same,GI50,UACC-62 melanoma,1.6 µM
same,TGI,UACC-62 melanoma,4.01 µM
same,GI50,SK-MEL-5 melanoma,1.53 µM
same,TGI,SK-MEL-5 melanoma,2.92 µM
same,GI50,SW-620 colon,1.47 µM
same,TGI,SW-620 colon,3.15 µM
same,GI50,HS 578T breast,1.83 µM
same,TGI,HS 578T breast,7.6 µM
same,GI50,SF-268 CNS,2.63 µM
same,TGI,SF-268 CNS,9.03 µM
same,GI50,HL-60(TB) leukemia,1.83 µM
same,TGI,HL-60(TB) leukemia,5 µM
same,GI50,TK-10 renal,2.67 µM
same,TGI,TK-10 renal,7.6 µM
same,GI50,ACHN renal,1.54 µM
same,TGI,ACHN renal,3.85 µM
same,GI50,COLO 205 colon,0.383 µM
same,TGI,COLO 205 colon,1.4 µM
same,GI50,PC-3 prostate,1.53 µM
same,TGI,PC-3 prostate,5.11 µM
same,GI50,SN12C renal,2.29 µM
same,TGI,SN12C renal,9.33 µM
same,GI50,OVCAR-8 ovarian,2.4 µM
same,TGI,OVCAR-8 ovarian,8.34 µM
same,GI50,HT29 colon,0.396 µM
same,TGI,HT29 colon,1.55 µM
same,GI50,MCF7 breast,1.49 µM
same,TGI,MCF7 breast,4.08 µM
same,GI50,HOP-62 NSCLC,0.9 µM
same,TGI,HOP-62 NSCLC,5.15 µM
same,GI50,SF-539 CNS,1.8 µM
same,TGI,SF-539 CNS,4.23 µM
same,GI50,SNB-19 CNS,2.8 µM
same,TGI,SNB-19 CNS,10.7 µM
same,GI50,U251 CNS,1.31 µM
same,TGI,U251 CNS,7.28 µM
same,GI50,DU-145 prostate,2.32 µM
same,TGI,DU-145 prostate,6.02 µM
same,GI50,LOX IMVI melanoma,1.69 µM
same,TGI,LOX IMVI melanoma,4.35 µM
same,GI50,MDA-MB-231 breast,1.89 µM
same,TGI,MDA-MB-231 breast,5.4 µM
same,GI50,OVCAR-5 ovarian,2.44 µM
same,TGI,OVCAR-5 ovarian,7.75 µM
same,GI50,RXF 393 renal,2.42 µM
same,TGI,RXF 393 renal,9.46 µM
same,GI50,UACC-257 melanoma,2.91 µM
same,TGI,UACC-257 melanoma,10.4 µM
same,GI50,NCI-H23 lung,1.84 µM
same,TGI,NCI-H23 lung,5.84 µM
same,GI50,SNB-75 CNS,1.31 µM
same,TGI,SNB-75 CNS,9.02 µM
same,GI50,UO-31 renal,1.56 µM
same,TGI,UO-31 renal,4.98 µM
same,GI50,CCRF-CEM leukemia,0.806 µM
same,TGI,CCRF-CEM leukemia,4.38 µM
same,GI50,SK-MEL-2 melanoma,2.78 µM
same,TGI,SK-MEL-2 melanoma,8.15 µM
same,GI50,EKVX NSCLC,0.428 µM
same,TGI,EKVX NSCLC,6.58 µM
same,GI50,MOLT-4 leukemia,0.907 µM
same,TGI,MOLT-4 leukemia,4.3 µM
same,GI50,SK-MEL-28 melanoma,2.41 µM
same,TGI,SK-MEL-28 melanoma,6.09 µM
same,GI50,HCT-15 colon,1.01 µM
same,TGI,HCT-15 colon,4.31 µM
same,GI50,T-47D breast,1.1 µM
same,TGI,T-47D breast,3.25 µM
same,GI50,M14 melanoma,1.88 µM
same,TGI,M14 melanoma,5.05 µM
same,GI50,HCC-2998 colon,2.88 µM
same,TGI,HCC-2998 colon,9.66 µM
same,GI50,HCT-116 colon,0.715 µM
same,TGI,HCT-116 colon,2.05 µM
same,GI50,RPMI-8226 leukemia,1.16 µM
same,TGI,RPMI-8226 leukemia,4.51 µM
same,GI50,SR leukemia,0.461 µM
same,TGI,SR leukemia,2.67 µM
same,GI50,HOP-92 NSCLC,1.09 µM
same,TGI,HOP-92 NSCLC,2.75 µM
same,GI50,OVCAR-4 ovarian,1.95 µM
same,TGI,OVCAR-4 ovarian,4.38 µM
same,GI50,IGROV1 ovarian,1.08 µM
same,TGI,IGROV1 ovarian,4.91 µM
same,GI50,786-0 renal,2.61 µM
same,TGI,786-0 renal,7.88 µM
same,GI50,KM12 colon,1.3 µM
same,TGI,KM12 colon,3.27 µM
same,GI50,NCI-H460 lung,0.347 µM
same,TGI,NCI-H460 lung,1.62 µM
same,GI50,NCI-H226 lung,0.33 µM
same,TGI,NCI-H226 lung,1.57 µM
